Active and inactive are the calls of the source. No cut-off for these calls is given here.

The subject of test [1] is NB-4. Put plainly: Cell cycle arrest in human NB4 cells assessed as accumulation of cells at G2/M phase at higher concentration by DAPI staining based flow cytometric analysis. In kind it is functional. (Flow cytometry measures light scatter and fluorescence of single cells or particles in a stream.)
Test [2] deals with NB-4. In words: Cell cycle arrest in human NB4 cells assessed as accumulation of cells at G0/G1 phase at low concentration by DAPI staining based flow cytometric analysis. In kind it is functional.
Test [3] is described as follows: Cell cycle arrest in human ATRA-resistant NB4-LR2 cells assessed as accumulation of cells at G0/G1 phase at 1 uM incubated for 12 hrs by DAPI staining based flow cytometric analysis (reference value: 42 %). The class given is functional.
The nature of test [4]: Cell cycle arrest in human ATRA-resistant NB4-LR2 cells assessed as accumulation of cells at G2/M phase at 0.5 uM incubated for 24 hrs by DAPI staining based flow cytometric analysis (reference value: 25 %). The class given is functional.
The nature of test [5]: Cell cycle arrest in human ATRA-resistant NB4-LR2 cells assessed as accumulation of cells at S phase at 1 uM incubated for 12 hrs by DAPI staining based flow cytometric analysis (reference value: 12 %). The class given is functional.
The species named for test [6] is Homo sapiens. Put plainly: Binding affinity to N-terminal His-tagged human RARalpha LBD R276E mutant extracted from Escherichia coli BL21 (DE3) cells by ITC analysis. (Isothermal titration calorimetry measures the heat released or taken up as one component is titrated into another.)
Test [7] deals with NB-4. In words: Cell cycle arrest in human NB4 cells assessed as accumulation of cells at S phase at 2 uM incubated for 3 hrs by DAPI staining based flow cytometric analysis (reference value: 20 %). In kind it is functional.
The subject of test [8] is NB-4. In words: Cell cycle arrest in human NB4 cells transfected with pLVX-shPML-RARalpha plasmid assessed as accumulation of cells at G0/G1 phase at 1 uM incubated for 12 hrs by DAPI staining based flow cytometric analysis (reference value: 38 %). The class given is functional.
Test [9] is described as follows: Cell cycle arrest in human ATRA-resistant NB4-LR2 cells assessed as accumulation of cells at sub-G1 phase at 2 uM incubated for 6 hrs by DAPI staining based flow cytometric analysis (reference value: 9 %). In kind it is functional.
In test [10] the test system is NB-4. Put plainly: Cell cycle arrest in human NB4 cells assessed as accumulation of cells at G2/M phase at 0.5 uM incubated for 24 hrs by DAPI staining based flow cytometric analysis (reference value: 23 %). In kind it is functional.
The test system of test [11] is NB-4. In words: Cell cycle arrest in human NB4 cells assessed as accumulation of cells at S phase at 1 uM incubated for 24 hrs by DAPI staining based flow cytometric analysis (reference value: 26 %). In kind it is functional.
The test system of test [12] is NB-4. Put plainly: Cell cycle arrest in human NB4 cells transfected with pLVX-shRNA2-negative control assessed as accumulation of cells at G2/M phase at 1 uM incubated for 12 hrs by DAPI staining based flow cytometric analysis (reference value: 24 %). In kind it is functional.
Test [13] has as its system NB-4. Put plainly: Cell cycle arrest in human NB4 cells assessed as accumulation of cells at G2/M phase at 1 uM incubated for 24 hrs by DAPI staining based flow cytometric analysis (reference value: 23 %). In kind it is functional.
The subject of test [14] is NB-4. In words: Cell cycle arrest in human NB4 cells assessed as accumulation of cells at G2/M phase at 2 uM incubated for 3 hrs by DAPI staining based flow cytometric analysis (reference value: 21 %). The class given is functional.
Test [15] in a line: Cell cycle arrest in human ATRA-resistant NB4-LR2 cells assessed as accumulation of cells at G0/G1 phase at 2 uM incubated for 12 hrs by DAPI staining based flow cytometric analysis (reference value: 57 %). In kind it is functional.
In test [16] the test system is NB-4. In words: Cell cycle arrest in human NB4 cells transfected with pLVX-shRXRalpha plasmid assessed as accumulation of cells at G0/G1 phase at 1 uM incubated for 12 hrs by DAPI staining based flow cytometric analysis (reference value: 53 %). The class given is functional.
Test [17] has as its system NB-4. Put plainly: Cell cycle arrest in human NB4 cells transfected with pLVX-shRXRalpha plasmid assessed as accumulation of cells at G2/M phase at 1 uM incubated for 12 hrs by DAPI staining based flow cytometric analysis (reference value: 17 %). In kind it is functional.
For test [18], the system named is NB-4. Put plainly: Cell cycle arrest in human NB4 cells transfected with pLVX-shPML-RARalpha plasmid assessed as accumulation of cells at sub-G1 phase at 2 uM incubated for 12 hrs by DAPI staining based flow cytometric analysis (reference value: 21 %). In kind it is functional.
The test system of test [19] is NB-4. Put plainly: Cell cycle arrest in human NB4 cells assessed as accumulation of cells at sub-G1 phase at 0.5 uM incubated for 24 hrs by DAPI staining based flow cytometric analysis (reference value: 3 %). In kind it is functional.
Test [20] relates to NB-4. In words: Cell cycle arrest in human NB4 cells transfected with pLVX-shRXRalpha plasmid assessed as accumulation of cells at sub-G1 phase at 1 uM incubated for 12 hrs by DAPI staining based flow cytometric analysis (reference value: 10 %). In kind it is functional.
A short description of test [21]: Cell cycle arrest in human ATRA-resistant NB4-LR2 cells assessed as accumulation of cells at S phase at 1 uM incubated for 24 hrs by DAPI staining based flow cytometric analysis (reference value: 21 %). In kind it is functional.
Test [22] deals with NB-4. Put plainly: Cell cycle arrest in human NB4 cells transfected with pLVX-shPML-RARalpha plasmid assessed as accumulation of cells at G2/M phase at 1 uM incubated for 12 hrs by DAPI staining based flow cytometric analysis (reference value: 22 %). The class given is functional.
Test [23] is described as follows: Cell cycle arrest in human ATRA-resistant NB4-LR2 cells assessed as accumulation of cells at S phase at 2 uM incubated for 12 hrs by DAPI staining based flow cytometric analysis (reference value: 19 %). In kind it is functional.
Test [24] deals with ATRA-resistant NB4-LR2. Put plainly: Cell cycle arrest in human ATRA-resistant NB4-LR2 cells transfected with pLVX-shRXRalpha assessed as increase in cyclin B1 expression at 1 uM incubated for 12 hrs by Western blot analysis. In kind it is functional, cell-based. In general terms: A western blot detects proteins with antibodies after separation by electrophoresis.
The test system of test [25] is NB-4. Put plainly: Cell cycle arrest in human NB4 cells transfected with pLVX-shPML-RARalpha plasmid assessed as accumulation of cells at S phase at 1 uM incubated for 12 hrs by DAPI staining based flow cytometric analysis (reference value: 19 %). In kind it is functional.
For test [26], the system named is NB-4. In words: Cell cycle arrest in human NB4 cells transfected with pLVX-shPML-RARalpha plasmid assessed as accumulation of cells at sub-G1 phase at 1 uM incubated for 12 hrs by DAPI staining based flow cytometric analysis (reference value: 21 %). The class given is functional.
Test [27] can be described thus: Cell cycle arrest in human ATRA-resistant NB4-LR2 cells assessed as accumulation of cells at sub-G1 phase at 2 uM incubated for 12 hrs by DAPI staining based flow cytometric analysis (reference value: 9 %). The class given is functional.
Test [28] relates to NB-4. In words: Cell cycle arrest in human NB4 cells assessed as accumulation of cells at S phase at 2 uM incubated for 6 hrs by DAPI staining based flow cytometric analysis (reference value: 20 %). In kind it is functional.
Test [29] in a line: Cell cycle arrest in human ATRA-resistant NB4-LR2 cells assessed as accumulation of cells at sub-G1 phase at 1 uM incubated for 12 hrs by DAPI staining based flow cytometric analysis (reference value: 18 %). In kind it is functional.
Test [30] in a line: Cell cycle arrest in human ATRA-resistant NB4-LR2 cells assessed as accumulation of cells at S phase at 2 uM incubated for 6 hrs by DAPI staining based flow cytometric analysis (reference value: 19 %). The class given is functional.
The subject of test [31] is NB-4. In words: Cell cycle arrest in human NB4 cells assessed as accumulation of cells at G0/G1 phase at 2 uM incubated for 24 hrs by DAPI staining based flow cytometric analysis (reference value: 48 %). The class given is functional.

As to `Cc1cc2c(cc1C(=O)/C(Br)=C\c1ccc(C(=O)O)cc1)C(C)(C)CCC2(C)C`, the result in [1] and in [2] was Active.

`Cc1cc2c(cc1C(=O)/C(Br)=C/c1ccc(C(=O)O)cc1)C(C)(C)CCC2(C)C`: the Activity is 10% in test [3]; 33% in test [4]; 16% in test [5]; 21% in [7]; 27% in [8]; 22% in test [9]. Further, the Activity in test [10] is 26%; in [11], 9%; in test [12] it was 54%; in test [13] it was 45%; in [14], 28%; in test [15], 36%. In addition, the Activity in [16] amounted to 36%; in test [17], 45%; in test [18], 27%; in test [19] it was 5%; in test [20], 11%; in test [21], 18%. For the same molecule, the Activity in test [22] stood at 27%; in test [23] it was 10%; in test [25] it was 21%; in test [26], 24%; in test [27], 32%; in test [28], 27%. Also, the Activity in test [29] was 21%; in [30], 7%; in test [31], 35%. Further, the result in [6] and in [24] was inactive.

The record behind these values is ChEMBL document CHEMBL6134780, “Halogenated retinoid derivatives as dual RARα and RXRα modulators for treating acute promyelocytic leukemia cells” (Eur J Med Chem, 2024).
